Patent publication US11999806B2, “Broad-spectrum polypeptide against enterovirus and application thereof” (WUHAN INSTITUTE OF VIROLOGY, CHINESE ACADEMY OF SCIENCES, priority 2018, dated 2024)
Several values for one entry are separate records, joined by “and”; a condition that tells them apart may be missing. Equal values may be shown once. Read-outs that look alike come from different tables or passages of the source.

Legend:
CVA16 = assay: Antiviral activity against CVA16 in mice, virus copies in muscle by qRT-PCR; format: in vivo, ICR suckling mice; details: 10 mg/kg i.p. every 12 h for 5 days vs PBS
From the text: (§1) • (1) 8 2-day-old ICR mice were randomly divided into two groups, 4 in each group.
3. The Procedure for Detecting the Antiviral Activity of P1 Against CVA16 in Mice is Similar as the EV71 Experiment.
3. The Procedure for Detecting the Antiviral Activity of CR Against CVA16 in Mice is Similar to the EV71 Experiment.

EV71 [1] = format: cell-based, enterovirus 71; details: EV71 0.1 MOI, RD cells, 24 h; for Virus inhibition rate (%): CCK-8
Experimental: • (1) 293T cells were plated in a 24-well cell plate. • (2) After the cells reached 70%-80% confluence, the MEM medium containing 10% serum was replaced with a MEM medium containing 2% serum (0.5 ml/well), and 5 μl of 10^6 PFU/mL EV71 virus per well was added. • (3) After 1 hour, polypeptides P2, 3A-TAT-EP, 3A-EP-DRI and 3A-EP-PEG-PA were added at a final concentration of 0.01 μM, 0.1 μM, 1 μM, and 10 μM, respectively. • (4) Samples were collected 24 hours after virus infection, and RNA was extracted with a total RNA extraction kit. • (5) The supernatant in each well was discarded, then 350 μl of TRK Lysis Buffer was added to the well and the plate was shaken on the shaker for 5 minutes. • (6) 350 μl of 70% ethanol (DEPC-treated) was added to the well and the plate was shaken on the shaker for 5 minutes. • (7) The mixture in the well was transferred to a RNA extraction column and centrifuged at 12000 g for 1 min. • (8) The solution collected in the recovery tube was added back to the column and centrifuged at 12,000 g for 1 min. • (9) RNA washing buffer 1 was added to the column and centrifuged at 12,000 g for 30 s. • (10) RNA washing buffer 2 was added to the column and centrifuged at 12,000 g for 1 min. • (11) Step (10) was repeated once. • (12) The empty column was centrifuged at 12,000 g for 2 min to completely remove residual RNA washing buffer. • (13) 50 μl DEPC-treated water was added to the column and centrifuge at 12000 g for 2 min. • (14) 2 μl RNA sample was used according to one step qRT-PCR kit for fluorescence quantification experiment. 3. […] Each concentration was tested in triplicate. • (3) The diluted virus solution was added to the plate of step (1), 100 μL per well with the final virus concentration was 0.1 MOI. Wells without polypeptide and virus (well without treatment), wells with virus only were used as controls. • (4) The mixture of step (2) was added to the 96-well plate plated with cells in step (1) and incubated in 5% CO2 at 37° C. for 24 h. Then CCK8 kit was used to determine the inhibitory effect of the polypeptide on virus. • (5) The inhibition rate of different concentrations of polypeptides on viral infection was calculated using the following formula: OD means the value of OD450-OD630, inhibition rate=(OD well with treatment−OD well with virus only)×100%/(OD well without treatment−OD well with virus only)
• (1) RD cells in good growth state were plated in a 96-well plate. • (2) After the cells reached 70%-80% confluence, the MEM medium containing 10% serum was replaced with a MEM medium containing 2% serum. Group without polypeptide and virus, and group with virus but without polypeptide were included as controls. The final virus concentration was 0.1 MOI. • (3) 1 h later, polypeptide CR at a final concentration of 5 μM, 2.5 μM, 1.25 μM, 0.625 μM, 0.3125 μM, and 0.15625 μM was added, respectively. Group without polypeptide and virus, and group with virus but without polypeptide were set as controls. • (4) 24 hours after virus infection, when the change in the control group with only virus was obvious, 10 μl of viable cell detection agent CCK-8 was added to each well and mixed well. • (5) The plate was incubated at 37° C. for 2 h. • (6) The absorbance value at OD450 was measured with a microplate reader. Inhibition rate of polypeptide=(OD well with treatment−OD well with virus only)×100%/(OD well without treatment−OD well with virus only), OD refers to the value of OD450-OD630.
• (1) RD cells in good growth state were plated in a 96-well plate. • (2) After the cells reached 70%-80% confluence, the MEM medium containing 10% serum was replaced with a MEM medium containing 2% serum. Group without polypeptide and virus, and group with virus but without polypeptide were included as controls. The final virus concentration was 0.1 MOI. • (3) 1 h later, polypeptide CR at a final concentration of 2.5 μM, 1.25 μM, 0.625 μM, 0.3125 μM, and 0.15625 μM was added, respectively. […]

EV71 [2] = assay: Antiviral activity against EV71 in mice, virus copies in hind limb muscle by qRT-PCR; format: in vivo, ICR suckling mice
From the text: as §1

In the case of N=C(N)NCCC[C@H](NC(=O)[C@H](CS)NC(=O)CNC(=O)[C@H](CO)NC(=O)CNC(=O)[C@H](CCCNC(=N)N)NC(=O)[C@H](CCCNC(=N)N)NC(=O)[C@H](CCCNC(=N)N)NC(=O)[C@H](CCC(N)=O)NC(=O)[C@H](CCCNC(=N)N)NC(=O)[C@H](CCCNC(=N)N)NC(=O)[C@H](CCCCN)NC(=O)[C@H](CCCCN)NC(=O)[C@H](CCCNC(=N)N)NC(=O)CNC(=O)[C@@H](N)Cc1ccc(O)cc1)C(=O)O [CR], the “CVA16 viral load in mice, in words” value (CVA16) is reported as “can significantly reduce the viral load of CVA16 in mice”, the “Virus inhibition rate (%)” value (EV71 [1]; 0.15625 μM) is reported as −4.346% and −7.143% and −8.595% and the “Virus inhibition rate (%)” value (EV71 [1]; 0.625 μM) is reported as 16.42% and 7.119% and 16.77%. The “Virus inhibition rate (%)” value (EV71 [1]; 1.25 μM) was 50.8% and 47.5% and 45.63%, the “Virus inhibition rate (%)” value (EV71 [1]; 2.5 μM) was 78.26% and 70.5% and 64.43% and the “Virus inhibition rate (%)” value (EV71 [1]; 5 μM) was 74.47% and 71.5% and 69.26%. For the same compound, the IC50 (EV71 [1]; read-out: IC50 against EV71 by CCK8 method) was 1700 nM, the “EV71 viral load in mice, in words” value (EV71 [2]; 10 mg/kg i.p. every 12 h for 5 days vs PBS) was “can significantly reduce the EV71 viral load in mice” and the “Number of EV71 virus copy in muscle tissue (Copies/g)” value (EV71 [2]; 2-day-old ICR mice, EV71 i.p., 10 mg/kg polypeptide i.p. every 12 h for 5 days, individual animals, 10 mg/kg) was 1.88e+007 Copies/g and 1.122e+007 Copies/g and 1.738e+007 Copies/g and 9852432.0000 Copies/g.
